Test [1] concerns the target T1, Phospholipase A2, membrane associated (Homo sapiens) (UniProt P14555).
T1 sequence (whole entry): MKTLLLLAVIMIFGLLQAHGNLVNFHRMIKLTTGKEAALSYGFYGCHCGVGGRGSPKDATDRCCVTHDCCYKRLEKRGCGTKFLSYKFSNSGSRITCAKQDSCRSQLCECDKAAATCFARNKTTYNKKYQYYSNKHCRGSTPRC
The experiment in a line: Compound was evaluated for inhibition of phospholipase A2 (PLA2) isolated from human platelets at a concentration of 10 uM.

Test [2] has as its target T1, Phospholipase A2, membrane associated (Homo sapiens). In words: Compound was evaluated for inhibition of phospholipase A2 (PLA2) isolated from human platelets at a concentration of 100 uM.
Test [3] addresses T2, Phospholipase A2, membrane associated (Homo sapiens, UniProt P14555).
T2 sequence (P14555 whole entry): T1 sequence (whole entry)
The experiment in a line: Compound was evaluated for inhibition of human platelet phospholipase A2 (HP-PLA2).

Test [4] concerns Mus musculus. The experiment in a line: Effective dose to reduce mouse ear edema in a phorbol ester induced inflammation assay. The format is functional.

The structures appear in SMILES notation.

Take `CCCCCCCCCCc1ccc(NC(=O)c2ccccc2-c2ccccc2C(=O)O)cc1`: the values for the inhibition in test [1] and in test [2] were 26% and 92%, respectively.
`O=C(O)c1ccccc1-c1ccccc1C(=O)Nc1ccc2ccccc2c1`: the inhibition (commonly the share of the control response that was lost under treatment) in test [1] turned out to be 2%; in test [2], 8%.
The like results for `CCCCCCCCCCOc1ccc(NC(=O)c2ccccc2-c2ccccc2C(=O)O)cc1OCCCCCCCCCC` were, in that order, 85% and 98%.
The like results for `O=C(O)c1ccccc1-c1ccccc1C(=O)NCCc1c[nH]c2ccc(O)cc12` were, in that order, 0% and 0%.
In the case of `CC(C)c1ccc2c(c1)CC[C@H]1C[C@](C)(CNC(=O)c3ccccc3-c3ccccc3C(=O)O)CC[C@]21C`, the inhibition in test [1] worked out at 6%; in test [2] it was 63%.
With `CC1(C)CCC(C)(C)c2cc(NC(=O)c3ccccc3-c3ccccc3C(=O)O)ccc21`, the inhibition in test [1] turned out to be 14%; in test [2], 35%.
The corresponding values for `O=C(O)c1ccccc1-c1ccccc1C(=O)NC1CCCCCCC1` are 2% and 15%.
With `CC1=C(/C=C/C(C)=C/C=C(/C(C)=C/C(=O)O)c2cccc(C(=O)O)c2)C(C)(C)CCC1`, the IC50 (in general, the concentration that gives 50% inhibition) in test [3] was determined as 40 µM. For the same compound, the ED50 in test [4] was 160 ug ear-1.
As for `CCCCCCCCCCOc1ccc(NC(=O)c2ccccc2-c2ccccc2C(=O)O)cc1OCC(=O)O`, the inhibition in test [1] stood at 2%; in test [2], 23%.
